Data reported in patent US10253075B2, “WT1 antigenic polypeptide, and anti-tumor agent containing said polypeptide” (Tella, Inc., priority 2014, dated 2019).

Assays:
Type in all cases: cell-based, human
[1] = test system: CD4-positive T cells and CD8-positive T cells; assay: Induction of antigen-specific T cells from PBMC, CD4 and CD8 taken together; details: for best peptide (%): CD4 + CD8, percentage of PBMCs in which the peptide was evaluated as best peptide
Procedure: (§1) From the blood that was donated from 6 healthy human volunteers, human peripheral blood mononuclear cells (PBMC) were separated using a Ficoll-Paque (manufactured by Amersham Bioscience Inc.). The separated PBMC was cultured at 37° C. for 1 hour in a cell culture flask (manufactured by ED Biosciences) in a CO2 incubator using a serum-free AIM-V medium, thereby to remove non-adherent cells. Then, adherent cells remaining on the flask were started to culture in the AIM-V medium in the presence of a recombinant GM-CSF (10 ng/ml, manufactured by Wako Company) and a recombinant IL-4 (10 ng/ml, manufactured by Wako Company). After 3 days from the start of culture, the medium was replaced by an AIM-V medium supplemented with GM-CSF and IL-4, and dendritic cells (DC) were recovered using trypsin after 7 days from the start of culture. These DCs were used as antigen-presenting cells (APC) in the induction of antigen-specific T cells or in the analysis of antigen-specific cytokine (IFN-γ) production from T cells.
(§2) The foregoing PBMCs separated from healthy human volunteers were seeded to a density of 2×10^6 cells/well in a 24-well plate (manufactured by BD Biosciences). Then, culturing the cells were started in an AIM-V medium (1 ml/well) supplemented with each polypeptide (5 μM) derived from the WT1 protein described above inducing antigen-specific T cells, and serum at 37° C. in a CO2 incubator.
(§3) After 7 days from the start of culture, the above DC (autologous DC) was added to PBMC having the same derivation. Further, the medium was replaced with a serum-free AIM-V medium (manufactured by Life Technologies Inc.) supplemented with OK-432 (0.1 KE/ml, trade name: picibanil, manufactured by Chugai Pharmaceutical Co., Ltd.), and culture was performed for 2 hours. It should be noted that picibanil (OK-432) is a formulation obtained by treating an attenuated natural mutant strain (Su strain) of Group A Streptococcus with penicillin, and it is known that various cytokines (immune factor) are produced with use of picibanil to elicit an immune enhancing effect.
Then, after 2 hours of culture, the cells were treated for 50 minutes with addition of mitomycin C (MMC, manufactured by Kyowa Hakko Kirin Co., Ltd.). Furthermore, co-culture was performed in an AIM-V medium containing autologous DC and 5% human AB serum in which T cells are inactivated (Hokkaido Red Cross Center) in the presence of each polypeptide (5 μM) for inducing the antigen-specific T cells, thereby to re-stimulate the T cells. Two days later, a recombinant IL-2 (manufactured by Shionogi Pharmaceutical Institute Co., Ltd.) was added thereto to a final concentration of 10 U/ml. […]

[2] = test system: CD4-positive T cells (Th cells); assay: Induction of antigen-specific Th cells from PBMC; IFN-γ intracellular staining (ICS); parameters: key to induction of antigen-specific T cells: The symbol “+” in Table 7 indicates that the induction of antigen-specific T cells was observed; the symbol “−” indicates that the induction of antigen-specific T cells was not observed; details: for best peptide (%) / induction efficiency (%): CD4; for best peptide (%): percentage of the 6 kinds of PBMCs in which the peptide was evaluated as best peptide; for induction efficiency (%): proportion of the 6 kinds of donor PBMCs induced to antigen-specific T cells; for induction of antigen-specific T cells: induced T cell CD4, polypeptide 5 μM, IFN-γ-producing cells, day 21; for best peptide: highest ratio of antigen-specific IFN-γ-producing cells
Procedure: as §1, §2, §3
(§4) Then, after 2 hours of culture, the cells were treated for 50 minutes with addition of mitomycin C (MMC, manufactured by Kyowa Hakko Kirin Co., Ltd.). Furthermore, co-culture was performed in an AIM-V medium containing autologous DC and 5% human AB serum in which T cells are inactivated (Hokkaido Red Cross Center) in the presence of each polypeptide (5 μM) for inducing the antigen-specific T cells, thereby to re-stimulate the T cells. Two days later, a recombinant IL-2 (manufactured by Shionogi Pharmaceutical Institute Co., Ltd.) was added thereto to a final concentration of 10 U/ml. After 14 days from the start of co-culture, the autologous DC was pulsed with each polypeptide (5 μM) for inducing the antigen-specific T cells for 2 hours, and then treated with MMC. Such MMC treated cells as APC were used for re-stimulating T cells. In addition, on or after 14 days from the start of co-culture, culture was performed at the concentration of 20 U/ml of recombinant IL-2. After that, T cells on day 21 of the co-culture were collected by centrifugation or the like and subjected to an analysis of antigen-specific reactivity shown below.
(§5) T cells that were induced as described above (T cells on day 21 of the co-culture) and autologous DCs were seeded in the same well of a 96-well plate (manufactured by BD Biosciences) to a density of 5×10^4 cells/well and 5×10^3 cells/well, respectively. Then, the cells were cultured in the presence of each polypeptide (HE 4, KE 1, KE 5, H/K-HELP 1, H/K-HELP 2 or H/K-HELP 3) (5 μM) for the analysis of antigen-specific reactivity. In addition, a group without addition of such polypeptide was prepared as a control group. […]

[3] = test system: CD8-positive T cells (CTL); assay: Induction of antigen-specific CTL from PBMC; IFN-γ intracellular staining (ICS); parameters: key to induction of antigen-specific T cells: The symbol “+” in Table 7 indicates that the induction of antigen-specific T cells was observed; the symbol “−” indicates that the induction of antigen-specific T cells was not observed; details: for best peptide (%) / induction efficiency (%): CD8; for best peptide (%): percentage of the 6 kinds of PBMCs in which the peptide was evaluated as best peptide; for induction efficiency (%): proportion of the 6 kinds of donor PBMCs induced to antigen-specific T cells; for induction of antigen-specific T cells: induced T cell CD8, polypeptide 5 μM, IFN-γ-producing cells, day 21; for best peptide: highest ratio of antigen-specific IFN-γ-producing cells
Procedure: as §1, §2, §3, §4, §5

| Sequence | best peptide (%) [1] | best peptide (%) [2] | induction efficiency (%) [2] | induction of antigen-specific T cells ([2]; donor 1 PBMC) | induction of antigen-specific T cells ([2]; donor 2 PBMC) | induction of antigen-specific T cells ([2]; donor 3 PBMC) | induction of antigen-specific T cells ([2]; donor 4 PBMC) | induction of antigen-specific T cells ([2]; donor 5 PBMC) | induction of antigen-specific T cells ([2]; donor 6 PBMC) | best peptide (%) [3] | induction efficiency (%) [3] | induction of antigen-specific T cells ([3]; donor 1 PBMC) | induction of antigen-specific T cells ([3]; donor 2 PBMC) | induction of antigen-specific T cells ([3]; donor 3 PBMC) | induction of antigen-specific T cells ([3]; donor 4 PBMC) | induction of antigen-specific T cells ([3]; donor 5 PBMC) | induction of antigen-specific T cells ([3]; donor 6 PBMC) | other results |
| --- | --- | --- | --- | --- | --- | --- | --- | --- | --- | --- | --- | --- | --- | --- | --- | --- | --- | --- |
| KRYFKLSHLQMHSRKHGGGGGRMFPNAPYL (Fusion polypeptide in which HE4, 5-Glycine linker and KE1 are fused in this order from the N-terminal) [H/K-HELP1, fused polypeptide: HE4, five-glycine linker, KE1 from the N-terminus] | 0.00% | 0.00% | 33.33% | + | − | − | − | + | − | 0.00% | 16.67% | − | − | − | − | + | − | activity of inducing antigen-specific T cells in CD4-positive and CD8-positive T cells, comparison in words ([1]; compared with Comparative Example 1 (mix of the epitopes), 6 donors): not different from those of Comparative Example 1 |
| KRYFKLSHLQMHSRKHGGGGGRMFPNAPYLGGGGGCYTWNQMNL (Fusion polypeptide in which HE4, 5-Glycine linker, KE1, 5-Glycine linker and KE5 are fused in this order from the N-terminal) [H/K-HELP2, fused polypeptide: HE 4, KE 1 and KE 5 from the N-terminus with five-glycine linkers] | 33.33% | 33.33% | 50.00% | − | + | + | − | + | − | 33.33% | 50.00% | + | − | + | − | − | + | best peptide ([2]; donor 2, CD4): H/K-HELP2; best peptide ([2]; donor 3, CD4): H/K-HELP2; best peptide ([3]; donor 1, CD8): H/K-HELP2; best peptide ([3]; donor 6, CD8): H/K-HELP2 |
| RMFPNAPYLGGGGGKRYFKLSHLQMHSRKHGGGGGCYTWNQMNL (Fusion polypeptide in which KE1, 5-Glycine linker, HE4, 5-Glycine linker and KE5 are fused in this order from the N-terminal) [H/K-HELP3, fused polypeptide: KE 1, HE 4 and KE 5 from the N-terminus with five-glycine linkers] | 50.00% | 50.00% | 66.67% | + | − | + | + | + | − | 50.00% | 50.00% | − | − | + | + | + | − | stimulation of CD4-positive T cells of different derivation to induce IFN-γ-producing Th1 cells, comparison in words ([2]; compared with Example 1, 6 donors): more numerous CD4-positive T cells of different derivation are stimulated, as compared to Example 1; best peptide ([2]; donor 1, CD4): H/K-HELP3; best peptide ([2]; donor 4, CD4): H/K-HELP3; best peptide ([2]; donor 5, CD4): H/K-HELP3; best peptide ([3]; donor 3, CD8): H/K-HELP3; best peptide ([3]; donor 4, CD8): H/K-HELP3; best peptide ([3]; donor 5, CD8): H/K-HELP3 |
